Where no end group is shown, it is not given here.
Key:
anti-DTD CD4+ cell lines = assay: Proliferation assay (3H-thymidine) with anti-DTD CD4+ cell lines challenged with individual synthetic DTX peptides; assay type: cell-based, human; details: seven subjects of different HLA class II haplotype; peptide 10 μg/ml
Description: Propagation of CD4+ cell lines specific for DTD and proliferation assay. PBMC were suspended (1-2×10^6 cell/ml) in TCM containing 10 μg/ml DTD, and cultivated in T25 flasks (Costar, Cambridge, Mass.) for 1 week. The reactive lymphoblasts were isolated on Percoll gradients, expanded in TCM containing T-cell growth factor (TCGF, Lymphocult, Biotest Diagnostic, Dreieich, Germany, at a final concentration of IL-2 of 10 units/ml), and enriched in DTD-specific cells by weekly stimulations with the same amount of DTD plus irradiated (4,000 rads: 1 rad=0.01 Gy) autologous PBMC as APC. The response to DTD and PHA of the T cell lines obtained was tested weekly.
Proliferation assays with CD4+ cell lines for DTD. Proliferation assays were carried out with CD4+ lines, using 2×10^4 cells/well, irradiated autologous PBMC (2×10^5 cells/well) as APC, and the Ags described above for CD4+ enriched PBMC. Basal growth rate (Blank) was determined from triplicate wells containing CD4+ cell lines cultivated without any stimulus. After one day, the cultured cells were pulsed for 16 hours with ^3H-thymidine, collected, and the ^3H-thymidine incorporation measured as described above for CD4+ enriched PBMC.
Sequence segments of DTX recognized by anti-DTD T cell lines. The DTX epitopes recognized by the CD4+ cell lines were identified in proliferation assays using individual synthetic DTX-specific peptides. […] The consistency of the recognition was verified by repeating the test 1-2 weeks later.

PBMC = PBMC of 49 HLA heterogenous subjects challenged with DTX and TTX universal epitope peptides; assay type: cell-based, human; details: share of the 49 subjects whose PBMC responded
Excerpt: PBMC of 49 randomly selected, HLA heterogenous human subjects were challenged with each of the identified DTX and TTX universal epitope peptides. Generally, the PBMCs of each subject recognized several universal epitopes and all but one recognized at least one of the peptides.

Substance | recognition by anti-DTD CD4+ cell lines (anti-DTD CD4+ cell lines) | positive response (1%) (PBMC) [%]
GVLLPTIPGKLDVNKSKTHI [431-450] | recognized by all seven individuals | 70
TDD: column head of Table 4 beside the TTD sequence segments; presumably tetanus toxoid |  | 96
Gln-Ser-Ile-Ala-Leu-Ser-Ser-Leu-Met-Val-Ala-Gln-Ala-Ile-Pro-leu-Val-Gly-Glu-Leu [331-350] | recognized by all seven individuals | 80
PVFAGANYAAWAVNVAQVI [271-290] | recognized by all seven individuals | 84
QGESGHDIKITAENTPLPIA [411-430] | recognized by all seven individuals | 70
VHHNTEEIVAQSIALSSLMV [321-340] | recognized by all seven individuals | 76
VDIGFAAYNFVESIINLFQVV [351-370] | recognized by all seven individuals | 71

— patent US20030224021A1, “Methods of using epitope peptides of human pathogens” (Regents of the University of Minnesota, priority 1998, published 2003)
